Where two headings read alike, the source gives them in different places.
How the values were obtained:
[1] = skin permeability measurement in Franz diffusion cell after microheater microablation
Method: Microheater components are tested for use in ablation of stratum corneum and increasing barrier permeability and increased drug transport by assessing transport across cadaver skin by three different molecules. Calcein is a low molecular weight (623 Da) fluorescent molecule used to measure skin permeability by spectrofluorimetric assay and image transport pathways in skin by confocal microscopy. […] Insulin is a polypeptide (6 kDa) that will be used for comparison with in vivo studies involving insulin delivery to diabetic rats. To perform skin permeability measurements, cadaver epidermis is placed in a Franz diffusion cell at 37° C. and an array of microheaters is then positioned on the stratum corneum side and thermally activated to cause microablation. […] Every hour, or more frequently, 1 ml of receptor solution is sampled, and replaced with fresh saline, and fluorescence intensity is measured using calibrated spectrofluorometry and analyzed to determine rates of transdermal delivery.

[2] = in vivo transport into and across skin treated with thermal treatment device; design: species or system Sprague-Dawley hairless rat; conditions: hairless rat skin treated with thermal treatment device; brief exposure to dye or over an hour to calcein solution
Method: (§1) The in vivo skin model is a Sprague-Dawley hairless rat, a commonly used model for human skin permeability due to the similarity of hairless rat and human skin. For initial studies, rats ARE anesthetized by intraperitoneal injection of urethane (1000 mg/kg) and treated with a thermal treatment device of the present invention. The skin is exposed either briefly to a blue tissue marking dye to visualize the size and location of pores, or exposed for over an hour to a calcein solution to image the transdermal transport process. After sacrificing the animal, skin specimens are excised and prepared for histological examination by cryostat sectioning.

[3] = insulin delivery through micropores in streptozotocin-diabetic rats; type: in vivo, rat; conditions: treated skin area exposed to Humulin-R insulin solution
Method: as §1
For insulin delivery studies, rats are made diabetic by intravenous injection with 100 mg/kg streptozotocin, which produces diabetes the next day due to destruction of pancreatic islet cells. Under urethane anesthesia, skin is treated with a thermal treatment device of the present invention and the treated skin area is exposed to an Humulin-R insulin solution. Blood samples are collected by tail veil laceration over time to measure glucose concentration using a FreeStyle glucose monitor to determine pharmacodynamic response and to measure insulin concentration by radioimmunoassay to determine pharmacokinetic response, after which the animal is sacrificed.

**Q.** Which “transport across cadaver skin (measured in receptor solution)” value [1] does the source give for `O=C(O)CN(CC(=O)O)Cc1cc2c(cc1O)Oc1cc(O)c(CN(CC(=O)O)CC(=O)O)cc1C21OC(=O)c2ccccc21` [Calcein] here?
**A.** Its value is “later measured in the receptor solution”.

**Q.** And the “transport into micropores and across the epidermis (histological tissue sections)” value [2]?
**A.** The value was “show transport of the molecules into the micropores and with time, transport across the epidermis”.

**Q.** Which “transport across cadaver skin (measured in receptor solution)” value ([1]; cadaver epidermis, Franz diffusion cell at 37° C., after microablation by microheater array, added individually to donor compartment) does the source give for Insulin here?
**A.** The value was “later measured in the receptor solution”.

**Q.** And the “blood glucose (pharmacodynamic response)” value [3]?
**A.** The value was “response to glucose control”.

**Q.** And the “insulin concentration in blood (radioimmunoassay, pharmacokinetic response)” value [3]?
**A.** Its value is “insulin in the blood”.
